Laboratory results reported in patent US20210268129A1, “Theranostic Radiophotodynamic Therapy Nanoparticles” (priority 2018, published 2021).

Assays:
[1] = system: normal skin fibroblast cell line GM38
Experimental: (§1) To confirm, baseline toxicity experiments were conducted with the fully assembled nanoparticles and its constituents. […] MTT assays detected changes in cell proliferation and viability.

[2] = system: prostate cancer cell line DU145
Experimental: as §1

[3] = system: prostate cancer cell line PC3
Experimental: as §1

Measured: baseline cytotoxicity over increasing doses

C=CC1=C(C)c2cc3[nH]c(cc4nc(cc5[nH]c(cc1n2)c(C)c5CCC(=O)O)C(CCC(=O)O)=C4C)c(C)c3C=C [PPIX, protoporphyrin IX]
No appreciable differences: all assays above
